Measurements reported in PMC8151276, “An Integrated Approach toward NanoBRET Tracers for Analysis of GPCR Ligand Engagement” (Molecules, 2021).

Biological target: T1, HTR7 (Homo sapiens, UniProt P34969)
T1 construct: purchased Promega (in-house HiBiT-GPCR construct library, NanoBRET)
Assay: NanoBRET screen HiBiT-HTR7 in HEK293
Format: binding
Procedure: Each tracer candidate was screened across the entire library of HiBiT-GPCR constructs using NanoBRET as the detection modality. As depicted in Figure 4A, the specificity of interactions was evaluated through decrease in BRET due to competitive displacement of a bound tracer by excess parental compound. Each tracer was analyzed for binding to each HiBiT-GPCR fusion in the absence and in the presence of competing parental compound. Briefly, HEK293 cells were transfected with HiBiT-GPCR constructs diluted into promoterless DNA to reduce expression and maximize translocation to the cell surface. Each tracer candidate was then screened at concentrations of 1 μM and 0.1 μM across cells expressing these fusions. Cells were treated for 1.5 h with tracer either alone or in the presence of 20 μM competing parental compound (i.e., control). BRET was measured upon addition of purified LgBiT and subsequent complementation with HiBiT genetically fused to a GPCR. The specificity of interactions was assessed through a decrease in BRET signal due to competitive displacement of the bound tracer. To further gauge the robustness of these interactions, the fold response over the control (i.e., BRETtracer/BRETcontrol) was calculated. We chose a 1.5-fold response, which translates to ≥7-fold signal over noise as the minimal threshold required to score an interaction as positive.
HiBiT-GPCR DNA constructs were diluted in 10 mM Tris pH 8 to a final concentration of 0.01 μg/μL, arrayed in 96-well plates and stored at −20 °C. For transfection, HEK293 cells were suspended in Opti-MEM (without phenol red) supplemented with 2% fetal bovine serum (Seradigm) and 100 units/mL penicillin–streptomycin (Gibco) at a final concentration of 220,000 cells/mL and dispensed into white 96-well plates at 90 μL/well. Subsequent transfections and screens were carried using an Agilent Bravo Automated Liquid Handling Platform. First, the 96-well HiBiT DNA arrays were diluted 25-fold in Opti-MEM (without serum or phenol red) to a final concentration of 0.0004 μg/μL and 20 μL of the diluted DNAs were transferred into new 96-well plates. Next, promoterless carrier DNA (1 μg/μL) was diluted 25-fold (0.04 μg/μL) and then dispensed into the diluted arrays at 20 μL/well. Following brief mixing, Viafect transfection reagent (Promega) diluted 16-fold into Opti-MEM was dispensed into the plates at 40 μL/well. After mixing by pipetting, plates were incubated for 10 min on the pipetting station deck. The DNA-transfection reagent complexes were then added to plates containing cells. To facilitate the screen, 10 μL of DNA-transfection reagent complexes were added in duplicates to the top 4 and bottom 4 rows, resulting in two identical 48-well arrays per plate. Plates with transfected cells were incubated for 18–20 h at 37 °C/5% CO2. A screen of each tracer across the entire library using two different concentrations requires duplicate plates of transfected cells. Depending on the number of tracers being screened, transfections can be scaled up using the same ratios. The next day, for each tracer, four 20× screening solutions in tracer dilution buffer (Promega) were prepared: two duplicates at final concentration of 20 μM and two duplicates at a final concentration of 2 μM. […] The four resulting solutions were diluted 4-fold in Opti-MEM without serum or phenol red to generate 5× solutions (5 µM and 0.5 µM tracer +/− 100 μM competing compound). To screen the library, a BioTek MultiFlo FX liquid dispenser was used to dispense 22.5 µL of tracer solution to the top 4 rows and 22.5 µL tracer + competing compound solution to the 4 bottom rows. Plates were briefly mixed on an orbital shaker and incubated for 1.5 h at room temperature. […] Plates were briefly mixed on an orbital shaker and incubated for 15 min to allow complementation.

T1 sequence (P34969 whole entry): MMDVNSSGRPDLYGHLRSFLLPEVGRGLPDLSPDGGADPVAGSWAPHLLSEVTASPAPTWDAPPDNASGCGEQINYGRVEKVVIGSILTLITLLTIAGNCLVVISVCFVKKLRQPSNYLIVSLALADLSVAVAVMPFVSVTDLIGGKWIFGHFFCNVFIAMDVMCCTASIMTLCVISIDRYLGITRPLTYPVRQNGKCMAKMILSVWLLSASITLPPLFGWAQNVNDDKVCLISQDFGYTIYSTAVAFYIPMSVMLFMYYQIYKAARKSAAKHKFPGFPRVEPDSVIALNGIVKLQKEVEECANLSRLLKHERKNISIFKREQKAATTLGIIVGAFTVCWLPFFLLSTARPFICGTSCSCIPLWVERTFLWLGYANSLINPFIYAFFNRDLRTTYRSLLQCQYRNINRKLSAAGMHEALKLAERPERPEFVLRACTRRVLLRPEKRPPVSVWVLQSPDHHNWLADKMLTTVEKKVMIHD

SMILES	NanoBRET Fold Response (HTR7, tracer 0.1μM)	NanoBRET Fold Response (HTR7, tracer 1μM)	further results
CCOC(=O)c1cc(C#N)c(N2CCC(C(=O)NS(=O)(=O)Cc3ccccc3/C=C/C(=O)NCCNC(=O)CCc3ccc4n3[B-](F)(F)[N+]3=C(c5ccc[nH]5)C=CC3=C4)CC2)nc1C [AZD1283-1-NB590]	–	–	NanoBRET Fold Response (HTR7, 0.1μM): 1.08; NanoBRET Fold Response (HTR7, 1μM): 1.09
N#CN/C(=N\CCNC(=O)c1ccc(N)cc1)NCCCOc1cccc(CN2CCCCC2)c1 [Aminopotentidine (unmodified)]	–	–	NanoBRET Fold Response (HTR7, other tracers/Aminopotentidine (unmodified), 0.1μM): 1.10; NanoBRET Fold Response (HTR7, other tracers/Aminopotentidine (unmodified), 1μM): 1.18
N#CN=C(NCCCOc1cccc(CN2CCCCC2)c1)NCCNC(=O)CCOCCOCCOCCOCCNC(=O)CCc1ccc2n1[B-](F)(F)[N+]1=C(c3ccc[nH]3)C=CC1=C2 [Aminopotentidine-2-NB590]	1.00	1.00	–
CN(C)CCC=C1c2ccccc2CCc2ccc(C(=O)NCCNC(=O)CCOCCOCCOCCOCCNC(=O)CCc3ccc4n3[B-](F)(F)[N+]3=C(c5ccc[nH]5)C=CC3=C4)cc21 [Amitriptyline-a-2-NB590]	–	–	NanoBRET Fold Response (tracer at 0.1μM): 1.00; NanoBRET Fold Response (tracer at 1μM): 1.15
CN(C)CCC=C1c2ccccc2CCc2ccc(C(=O)NCCNC(=O)CCOCCOCCOCCOCCNC(=O)CCc3ccc4n3[B-](F)(F)[N+]3=C(c5ccc[nH]5)C=CC3=C4)cc21 [Amitriptyline-b-2-NB590]	–	–	NanoBRET Fold Response (tracer at 0.1μM, listed as amitriptyline-b-2-NB590): 0.94; NanoBRET Fold Response (tracer at 1μM, listed as amitriptyline-b-2-NB590): 0.94
CN(CCC=C1c2ccccc2CCc2ccccc21)C(=O)CCOCCOCCOCCOCCNC(=O)CCc1ccc2n1[B-](F)(F)[N+]1=C(c3ccc[nH]3)C=CC1=C2 [Amitriptyline-e-2-NB590]	–	–	NanoBRET Fold Response (tracer at 1μM): 0.96
COc1ccc2c(n1)c(CCNC(C)=O)cn2CCNC(=O)CCc1ccc2n1[B-](F)(F)[N+]1=C(c3ccc[nH]3)C=CC1=C2 [Azamelatonin-1-NB590]	–	–	NanoBRET Fold Response (0.1μM tracer): 0.99; NanoBRET Fold Response (1μM tracer): 0.99
COc1ccc2[nH]c(-c3ccc(CNC(=O)CCOCCOCCOCCOCCNC(=O)CCc4ccc5n4[B-](F)(F)[N+]4=C(c6ccc[nH]6)C=CC4=C5)cc3)c(CCNC(C)=O)c2n1 [AzomelatoninICO9-2-NB590]	–	–	NanoBRET Fold Response (0.1μM tracer): 0.96; NanoBRET Fold Response (1μM tracer): 1.02
O=C(CCOCCOCCOCCOCCNC(=O)CCc1ccc2n1[B-](F)(F)[N+]1=C(c3ccc[nH]3)C=CC1=C2)NCCCN1CCN(C2=Nc3cc(Cl)ccc3Nc3ccccc32)CC1 [Clozapine-a-2-NB590]	–	–	NanoBRET Fold Response (HTR7, 0.1μM tracer): 1.22; NanoBRET Fold Response (HTR7, 1μM tracer): 1.08
O=C(CCOCCOCCOCCOCCNC(=O)CCc1ccc2n1[B-](F)(F)[N+]1=C(c3ccc[nH]3)C=CC1=C2)NCCCN1CCN(C2=Nc3ccccc3Oc3ccc(Cl)cc32)CC1 [Loxapine-a-2-NB590]	1.07	1.30	–
COc1ccccc1N1CCN(CCCCN2C(=O)c3ccc(CNC(=O)CCOCCOCCOCCOCCNC(=O)CCc4ccc5n4[B-](F)(F)[N+]4=C(c6ccc[nH]6)C=CC4=C5)cc3C2=O)CC1 [NAN-190-2-NB590]	–	1.10	–
COc1ccccc1N1CCN(CCCCN2C(=O)c3ccc(CNC(=O)CCOCCNC(=O)c4ccc(CNC(=O)CCc5ccc6n5[B-](F)(F)[N+]5=C(c7ccc[nH]7)C=CC5=C6)cc4)cc3C2=O)CC1 [NAN-190-3-NB590]	1.21	1.05	–
O=C(CCc1ccc2n1[B-](F)(F)[N+]1=C(c3ccc[nH]3)C=CC1=C2)NCc1ccc(C(=O)NCCOCCC(=O)N[C@@H]2CC[C@@]3(O)[C@H]4Cc5ccc(O)c6c5[C@@]3(CCN4CC3CC3)[C@H]2O6)cc1 [Naltrexone-3-NB590]	0.97	0.97	–
Cc1cc2c(s1)Nc1ccccc1N=C2N1CCN(CCCNC(=O)CCOCCOCCOCCOCCNC(=O)CCc2ccc3n2[B-](F)(F)[N+]2=C(c4ccc[nH]4)C=CC2=C3)CC1 [Olanzapine-a-2-NB590]	0.99	1.16	–
O=C(CCc1ccc2n1[B-](F)(F)[N+]1=C(c3ccc[nH]3)C=CC1=C2)NCc1ccc(C(=O)NCCOCCOCCNCC(O)COc2cccc3ccccc23)cc1 (centres unmarked) [Propranolol-3-NB590]	–	–	NanoBRET Fold Response (HTR7, 0.1μM): 1.03; NanoBRET Fold Response (HTR7, 1μM): 1.02
O=C(CCc1ccc2n1[B-](F)(F)[N+]1=C(c3ccc[nH]3)C=CC1=C2)NCCOCCOCCNC(=O)OCCOCCN1CCN(C2=Nc3ccccc3Sc3ccccc32)CC1 [Quetiapine-a-2-NB590]	1.01	1.15	–
Cc1nc2n(c(=O)c1CCN1CCC(c3noc4cc(F)ccc34)CC1)CCCC2OC(=O)NCCOCCOCCOCCOCCNC(=O)CCc1ccc2n1[B-](F)(F)[N+]1=C(c3ccc[nH]3)C=CC1=C2 (centres unmarked) [Risperidone-2-NB590]	1.06	1.19	–
CC(C)N(CC[C@H](c1ccccc1)c1cc(CCNC(=O)CCOCCOCCOCCOCCNC(=O)CCc2ccc3n2[B-](F)(F)[N+]2=C(c4ccc[nH]4)C=CC2=C3)ccc1O)C(C)C [Tolterodine-2-NB590]	1.06	1.07	–
CC(C)N(CC[C@H](c1ccccc1)c1cc(CCNC(=O)c2ccc(CNC(=O)CCc3ccc4n3[B-](F)(F)[N+]3=C(c5ccc[nH]5)C=CC3=C4)cc2)ccc1O)C(C)C [Tolterodine-BZ-NB590]	1.06	1.03	–
CCCn1c(=O)c2[nH]c(-c3ccc(OCC(=O)NCCNC(=O)CCOCCNC(=O)c4ccc(CNC(=O)CCc5ccc6n5[B-](F)(F)[N+]5=C(c7ccc[nH]7)C=CC5=C6)cc4)cc3)nc2n(CCC)c1=O [XAC-3-NB590]	0.99	0.96	–
